Experimental data as given in patent publication US11096923B2, “Pharmaceutical composition containing polymyxin B/trimethoprim based therapeutics” (University of Rochester, priority 2016, dated 2021).

Columns and labels:
P. aeruginosa biofilm = system: P. aeruginosa biofilm; set-up: key: Killing (+) of established biofilms; settings: established biofilms; adenylate kinase reporter; Blanchard et al., 2016; cited from earlier work
S. aureus = assay: Fractional inhibitory concentration, checkerboard MIC; format: cell-based, Staphylococcus aureus; settings: S. aureus UAMS-1
S. aureus UAMS-1 = assay: Selleck library screen in presence of sub-inhibitory polymyxin B/trimethoprim; format: cell-based, Staphylococcus aureus; set-up: key: Growth (+); no growth (−); settings: for S. aureus growth, 5 μM: drug 5 μM in presence of 1.2 μg ml^−1 polymyxin B/trimethoprim; for S. aureus growth, 50 μM: drug 50 μM in presence of 1.2 μg ml^−1 polymyxin B/trimethoprim
Protocol: (§1) To identify agents that potentiate the antimicrobial activity of polymyxin B/trimethoprim we first determined the highest concentration of the polymyxin B/trimethoprim combination that allowed growth of P. aeruginosa strain PAO1 and S. aureus strain UAMS-1.
For Selleck library screening, individual wells of 96-well microtiter plates containing 88 μl of fresh media were inoculated with approximately 10^5 CFUs of P. aeruginosa strain PAO1 or S. aureus UAMS-1. Next, 2 μl of polymyxin B/trimethoprim was added to a final concentration of 0.2 μg ml^−1 or 1.25 μg ml^−1 for PA01 and UAMS-1, respectively. Library members were then added at either 5 μM or 50 μM final concentration. Plates were incubated at 37° C. for 16 hours and hits were identified as wells with no visible growth.
To do so, 10^5 CFUs of S. aureus strain UAMS-1 were inoculated in individual wells of a microtiter plate supplemented with 1.2 μg ml^−1 of polymyxin B/trimethoprim, (0.25×MIC). Library members were added at low (5 μM) or high (50 μM) concentrations and then scored for agents that inhibited growth following overnight incubation. Such agents were expected to represent compounds that display antimicrobial activity on their own and/or that potentiate the antimicrobial activity of polymyxin B/trimethoprim.

P. aeruginosa [1] = assay: Fractional inhibitory concentration, checkerboard MIC; format: cell-based, Pseudomonas aeruginosa
P. aeruginosa PAO1 = assay: Selleck library screen in presence of sub-inhibitory polymyxin B/trimethoprim; format: cell-based, Pseudomonas aeruginosa; set-up: key: Growth (+); no growth (−); settings: for P. aeruginosa growth, 5 μM: drug 5 μM in presence of 0.2 μg ml^−1 polymyxin B/trimethoprim; for P. aeruginosa growth, 50 μM: drug 50 μM in presence of 0.2 μg ml^−1 polymyxin B/trimethoprim
Protocol: as §1
For Selleck library screening, individual wells of 96-well microtiter plates containing 88 μl of fresh media were inoculated with approximately 10^5 CFUs of P. aeruginosa strain PAO1 or S. aureus UAMS-1. Next, 2 μl of polymyxin B/trimethoprim was added to a final concentration of 0.2 μg ml^−1 or 1.25 μg ml^−1 for PA01 and UAMS-1, respectively. Library members were then added at either 5 μM or 50 μM final concentration. Plates were incubated at 37° C. for 16 hours and hits were identified as wells with no visible growth. […]

[2] = system: S. aureus UAMS-1 biofilms; assay: Biofilm susceptibility; format: cell-based, Staphylococcus aureus; settings: established S. aureus biofilm, 24 hrs treatment, 32×MIC
Source text: Bacterial strains used in these studies include the conventional laboratory strains Pseudomonas aeruginosa PA01 and Staphylococcus aureus UAMS-1, both of which are antibiotic susceptible and capable of forming robust biofilms. See […], Thomas J R, Nelson […]. Role of the accessory gene regulator (agr) in pathogenesis of staphylococcal osteomyelitis. Infection and immunity 1995; 63:3373-3380. Seven clinical keratitis isolates of Pseudomonas aeruginosa, were collected from the Flaum Eye Institute, Rochester N.Y. and 25 clinical isolates of Staphylococcus aureus from geographically distinct regions of the country where purchased from International Health Management Associates (IHMA; Schaumburg, Ill.). For experiments requiring planktonic cultures, the indicated organism was grown overnight in Luria-Bertani broth (LB; […] Biofilms were established by inoculating individual wells of flat-bottom polystyrene plates (Falcon, Corning Life Sciences; Durham, N.C.) with overnight cultures of the indicated organism into 200 ul of fresh LB to a final concentration of 1×10^7 CFU ml^-1. Plates were placed in a 37° C.-humidified incubator for 72 hours to allow static biofilm formation. Non-adherent cells were aspirated and biofilms were washed twice with phosphate-buffered saline prior to each experiment. […] After 24 hrs the remaining media and non-adherent cells were removed, biofilms were suspended in 0.8% NaCl and plated to quantify surviving bacteria. […] Biofilms were treated in increasing increments ranging from 0 to 64×MIC.

[3] = system: planktonic P. aeruginosa cells; assay: Antimicrobial kill curves; format: cell-based, Pseudomonas aeruginosa; settings: 2× MIC, 4 hours post-treatment
Protocol: Overnight cultures of the indicated organism were used to inoculate (1:100 dilution) 100 ml of fresh media and grown to mid-exponential phase. […] Aliquots were taken at 1, 2, 3, 4, and 24 hours, serial diluted and plated for colony forming units.

S. aureus strain UAMS-1 = format: cell-based, Staphylococcus aureus; settings: 1×MIC, laser microbial growth monitor over 40 hours
Protocol: (§2) Spontaneous resistance to the indicated test agent(s) was measured for P. aeruginosa strain PA01 and S. aureus strain UAMS-1 using two liquid culture approaches. […] Growth was measured using the BacterioScan s216Dx laser microbial growth monitor, with optical measurements taken every 3 minutes over 40 hours. Following 40 hours, samples were plated for to measure viable colony forming units and re-tested for drug susceptibility.
(§3) To determine if these colonies represented untreated cells vs. resistant cells, 8 individual colonies from each treatment condition were randomly selected and tested for MICs.
(§4) Using an automated laser microbial growth monitor, the optical profiles of these cultures were measured continuously over time. […] Again 8 colonies were selected at random from each treatment group.

P. aeruginosa [4] = assay: MIC of clinical P. aeruginosa ocular isolates (antibiotic susceptibility profiles); format: cell-based, Pseudomonas aeruginosa; settings: Pseudomonas aeruginosa, read-out: Minimum Inhibitory Concentration
Source text: A series of genotyping and biological assays were used as a preliminary means to evaluate the clonality of clinical P. aeruginosa isolates collected, as follows. Genomic DNA was purified from each isolate using Qiagen DNeasy kits (Hilden, Germany) and used as a template for polymerase chain reactions to detect the presence of the virulence factors exoS, exoY, exoU, exoT, and perV using previously published primers (Table 1). See Allewelt M, Coleman F T, Grout M, Priebe G P, Pier G B. Acquisition of expression of the Pseudomonas aeruginosa ExoU cytotoxin leads to increased bacterial virulence in a murine model of acute pneumonia and systemic spread. Infection and immunity 2000; 68:3998-4004, Lomholt J A, Poulsen K, Kilian M. Epidemic population structure of Pseudomonas aeruginosa: evidence for a clone that is pathogenic to the eye and that has a distinct combination of virulence factors. Infection and immunity 2001; 69, and Ledbetter E C, Mun J J, Kowbel D, Fleiszig S M. Pathogenic phenotype and genotype of Pseudomonas aeruginosa isolates from spontaneous canine ocular infections. Investigative ophthalmology & visual science 2009; 50. […] See Institute C. Performance Standards for Antimicrobial Susceptibility Testing: Twenty-fifth Informational Supplement. Each isolate's ability to form biofilms was quantified. To do so, wells of a polystyrene plate containing 72-hour established biofilms were washed with 0.8% NaCl to remove non adherent cells and stained with crystal violet. To quantify biofilm staining, plates were washed 3 times with H2O, stain was suspended in 30% glacial acetic acid and the optical density (OD600nm) of each well was determined using an automated plate reader, as previously described. See Jacobs A C, Blanchard C E, Catherman S C, Dunman P M, Murata Y. An ribonuclease T2 family protein modulates Acinetobacter baumannii abiotic surface colonization. PloS one 2014; 9.

[5] = system: P. aeruginosa strain PA01; format: cell-based, Pseudomonas aeruginosa
Protocol: as §2, §3, §4

MRSA keratitis isolates = MRSA keratitis isolates collected between 1993 and 2012; cited from earlier work

In the case of N[C@@H]1CCCCN(c2c(F)cc3c(=O)c(C(=O)O)cn(C4CC4)c3c2Cl)C1 [Besifloxacin, besifloxacin], the “P. aeruginosa biofilm AK Signal” value (P. aeruginosa biofilm) is listed as “+”, the MIC in combination (S. aureus; PT combined with besifloxacin) is listed as 0.06 µg/mL and the MIC (S. aureus; Staphylococcus aureus) is listed as 0.12 µg/mL. The “S. aureus growth, 5 μM” value (S. aureus UAMS-1) was “−”, the “S. aureus growth, 50 μM” value (S. aureus UAMS-1) was “−” and the MIC in combination (P. aeruginosa [1]; P. aeruginosa PAO1, PT combined with besifloxacin) was 0.78 µg/mL. The MIC (P. aeruginosa [1]; Pseudomonas aeruginosa, PAO1, P. aeruginosa PAO1) was 1.56 µg/mL, the “P. aeruginosa growth, 5 μM” value (P. aeruginosa PAO1) was “−” and the “P. aeruginosa growth, 50 μM” value (P. aeruginosa PAO1) was “−”.

With COc1c(N2C[C@@H]3CCCN[C@@H]3C2)c(F)cc2c(=O)c(C(=O)O)cn(C3CC3)c12 [Moxifloxacin, moxifloxacin] the “reduction in biofilm-associated CFU” value [2] was 4 log, the “reduction in CFU at hour 4” value [3] was 5 log and the “start of outgrowth of treated culture” value (S. aureus strain UAMS-1) was 26 h. For the same molecule, the MIC (P. aeruginosa [4]; P. aeruginosa ocular isolate RW01 (cornea)) was 0.25 µg/mL, the MIC (P. aeruginosa [4]; P. aeruginosa ocular isolate RW02 (cornea)) was 0.25 µg/mL and the MIC (P. aeruginosa [4]; P. aeruginosa ocular isolate RW03 (cornea)) was 0.25 µg/mL. It also gave an MIC (P. aeruginosa [4]; P. aeruginosa ocular isolate RW04 (conjunctiva)) of 0.25 µg/mL, an MIC (P. aeruginosa [4]; P. aeruginosa ocular isolate RW05 (cornea)) of 0.125 µg/mL and an MIC (P. aeruginosa [4]; P. aeruginosa ocular isolate RW06 (cornea)) of 0.5 µg/mL. The MIC (P. aeruginosa [4]; P. aeruginosa ocular isolate RW07 (cornea)) was 0.125 µg/mL, the “resistance of recovered cells on MIC retest” value [5] was 2 ×MIC and the “time until growth of treated culture” value ([5]; P. aeruginosa, 1×MIC, laser microbial growth monitor over 40 hours) was “approximately 22 hours”.

In the case of C[C@@H]1CN(c2c(F)c(N)c3c(=O)c(C(=O)O)cn(C4CC4)c3c2F)C[C@H](C)N1 [Sparfloxacin, sparfloxacin], the “P. aeruginosa biofilm AK Signal” value (P. aeruginosa biofilm) is given as “+”, the “S. aureus growth, 5 μM” value (S. aureus UAMS-1) is given as “−” and the “S. aureus growth, 50 μM” value (S. aureus UAMS-1) is given as “−”. For the same molecule, the “P. aeruginosa growth, 5 μM” value (P. aeruginosa PAO1) was “−” and the “P. aeruginosa growth, 50 μM” value (P. aeruginosa PAO1) was “−”.

For COc1c(N2CCNC(C)C2)c(F)cc2c(=O)c(C(=O)O)cn(C3CC3)c12 (centres unmarked) [gatifloxacin], the isolates displaying resistance (MRSA keratitis isolates) is given as roughly 45.9%.

In the case of Cc1cc(NS(=O)(=O)c2ccc(N)cc2)no1 [sulfamethoxazole], the isolates displaying resistance (MRSA keratitis isolates) is listed as 5.7%.

In the case of COc1cc(Cc2cnc(N)nc2N)cc(OC)c1OC [trimethoprim], the isolates displaying resistance (MRSA keratitis isolates) is listed as 11.5%.
